# In patent US20180071317A1, “USE OF AGENTS THAT ALTER THE PERITUMORAL ENVIRONMENT FOR THE TREATMENT OF CANCER” (SERVICIO ANDALUZ DE SALUD, priority 2011, published 2018):
# Tests used:
# [1] = system: human primary macrophages (PHM); test: Marker expression (immunohistochemistry) in human primary macrophages with SP alone or with NK1 antagonists; format: cell-based; conditions: SP 1 μM + antagonist 1 μM; 48 h
# Protocol: In this sense the next step was to analyze the effect exerted by the treatment with non-peptide NK1 antagonists in human primary macrophages (PHM) obtained and purified from pleural effusion samples obtained from men with chronic age range between 45 and 55 years. Briefly, the pleural fluid from chronic (rich in macrophages) was centrifuged.
# After 48 hours of culture, cells were harvested and cellular paraffin blocks were constructed for immunohistochemical analysis (see Example 1). To analyze the expression of markers EGF, MMP-9, VEGF and IL-8 antibodies were used as follows: EGF (rabbit monoclonal antibody, anti-EGF; 07-1432. Merck-Millipore), MMP-9 (polyclonal rabbit anti-MMP-9: SAB4501896, Sigma-Aldrich), VEGF (mouse monoclonal anti-VEGF, GF25-100UG, Merck-Millipore) and TNF-α (mouse monoclonal anti-TNF-α, number MAB 1021 catalogue, obtained from Merck-Millipore). All of these antibodies were used at a concentration of 1/1000. System for labelling with a secondary antibody specific for the primary antibodies obtained from rabbit or mouse was used, as was necessary in each case, both the Envision (Dako). All experiments were carried out sixfold.
# [2] = system: fibroblasts (PHF) co-cultured with tumor cells in human prostate carcinoma (22Rv1); test: Marker expression (IHC) in PHF co-cultured with 22Rv1 tumor cells; format: cell-based; conditions: co-culture with 22Rv1; SP 1 μM + antagonist 1 μM; 48 h;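 note: cultures grown on fresh plasma from a healthy donor, each experiment run sixfold, values give the percentage of fibroblasts positive for the given marker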
# Protocol: (§4) All cultures were maintained 48 hours, following which the same cells were included in paraffin blocks for subsequent analysis of the expression of different markers by immunohistochemistry (see Example 1). […] All experiments were carried out sixfold. Analyzed markers in fibroblast cells (stromal cells) were: TGF-α, TGF-β1, TGF-β2, TGF-β3, SPARC, MMP-3, MMP-7, MMP-9, MMP-11, MMP-13 and MMP-14.
# [3] = system: fibroblasts (PHF) co-cultured with human fibrosarcoma tumor cells (HT-1080); test: Marker expression (IHC) in PHF co-cultured with HT-1080 tumor cells; format: cell-based; conditions: co-culture with HT-1080; SP 1 μM + antagonist 1 μM; 48 h;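 note: cultures grown in fresh human plasma from a healthy donor, six replicates, value is percent of fibroblasts positive for the marker, compared with fibroblasts cultured without tumor cells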
# Protocol: as §4
# [4] = system: fibroblasts (PHF) co-cultured with tumor cells of human Edwing sarcoma (MHH-ES-1); test: Marker expression (IHC) in PHF co-cultured with MHH-ES-1 tumor cells; format: cell-based; conditions: PHF co-cultured with MHH-ES-1 + SP + NK1 antagonist
# Protocol: as §4
# [5] = system: fibroblasts (PHF) co-cultured with tumor cells of human Burkitt lymphoma (CA-46); test: Marker expression (IHC) in PHF co-cultured with CA-46 tumor cells; format: cell-based; conditions: PHF co-cultured with CA-46 + SP + NK1 antagonist;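 note: percentage of PHF fibroblasts positive for each marker, cultures grown in fresh human plasma from a healthy donor, six replicates, compared with fibroblasts cultured alone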
# Protocol: All cultures were maintained 48 hours, following which the same cells were included in paraffin blocks for subsequent analysis of the expression of different markers by immunohistochemistry (see Example 1). The primary antibodies used to perform immunohistochemical assays and their concentration are detailed in Example 2. All experiments were carried out sixfold. Analyzed markers in fibroblast cells (stromal cells) were: TGF-α, TGF-β1, TGF-β2, TGF-β3, SPARC, MMP-3, MMP-7, MMP-9, MMP-11, MMP-13 and MMP-14.
# [6] = system: fibroblasts of tumors produced by human rhabdomyosarcoma tumor line (A-204); test: Marker expression (IHC) in fibroblasts of tumor or peritumoral area, mouse model, A-204; format: in vivo; conditions: A-204 tumors in mice, 30 mg/kg/day oral, 7 days
# Protocol: (§1) In vitro tests conducted in Example 5 are now carried out in an experimental model in mice in vivo. […] Subsequently, the expression in fibroblasts tumoral and peritumoral area of molecular markers associated with progression and maintenance of tumors: TGF-α, TGF-β1, TGF-β2, TGF-β3, MMP-7, MMP-11, MMP-14 were analyzed by immunohistochemistry.
# (§2) Were injected with 2×10^7 cells tumors (corresponding, in each case to each of the tumor types as specified in Table 9) in 200 of PBS subcutaneously μl. […] Mice were randomized into two groups when the tumors reached a volume of 75 mm^3 One group was treated with non-peptide receptor antagonists NK1 and the other with placebo 200μ1. […] Tumors and samples of non-neoplastic stromal areas remote from the tumor were halved, formalin fixed (4%) and then were included in paraffin blocks for analysis by immunohistochemistry.
# (§3) The expression on fibroblast cells obtained in the animal model was analyzed by immunohistochemistry, of the above markers: TGF-α, TGF-β1, TGF-β2, TGF-β3, MMP-7, MMP-1 1, MMP-14MP-14. Tables 32 to 35 depict the type of label used and the average percentage of fibroblasts present in non-tumor areas, tumor and peritumoral (±SD) which were expressing the marker shown in each of the tumor types developed from of the different cell lines used. This process was realized in mice treated with non-peptide antagonists of NK1 receptor and in untreated animals (control).
# [7] = system: fibroblasts of tumors produced by tumor cell line of human melanoma (MEL HO); test: Marker expression (IHC) in fibroblasts of tumor or peritumoral area, mouse model, MEL HO; format: in vivo; conditions: MEL HO tumors in mice, 30 mg/kg/day oral, 7 days
# Protocol: as §1, §2, §3
# [8] = system: co-cultures of tumor cells-endothelial cells (C-12210); test: Inhibition/survival in co-cultures of primary human tumor cells and endothelial cells; format: cell-based; conditions: survival in reference to control, SP 1 μM, Aprepitant 1 μM
# Protocol: To check that the interaction of primary tumor cells extracted directly from human with human vascular endothelial cells, promotes the survival of both cell types, co-cultures were performed microvascular endothelial cells from juvenile foreskins (PromoCell GmbH, Sickingenstraβe 63/65, D-69126 Heidelberg, Germany; reference C-12210) with tumor cells obtained directly from primary human tumors.
# A total of 6 wells containing tumor cells were used as control for survival. Another 6 wells containing tumor cells were cultured with addition of endothelial cells.
# Subsequently, cells were embedded in paraffin for analysis by immunohistochemistry. In order to identify the different cell types and quantity of them [They were labelled with primary antibodies specific for human endothelial cells (anti-CD31), carcinoma cells (Anti-Cytokeratins Spread Spectrum), glioma (Anti-glial fibrillary acidic protein), fibrosarcoma and malignant fibrous histiocytoma (Anti-Smooth Muscle Actin), Ewing sarcoma (Anti-CD99), Melanoma (Anti-HMB45), leukemias and lymphomas (Anti-Common Antigen Leucitario) and myeloma (anti CD 138). All antibodies are distributed by Dako and were used at the same concentration which is supplied (supplied pre-diluted—“ready to use”).
# [9] = Carcinoma of lung, (Small cell carcinoma in Table 36)
# [10] = Carcinoma of lung, Non Small Cell Carcinoma in Table 36
# [11] = Carcinoma of thyroid, (Follicular Carcinoma in Table 36)
# [12] = Carcinoma of thyroid, (Papillary Carcinoma in Table 36)
compound,measurement,setting,value
C[C@@H](O[C@H]1OCCN(Cc2n[nH]c(=O)[nH]2)[C@H]1c1ccc(F)cc1)c1cc(C(F)(F)F)cc(C(F)(F)F)c1 [Aprepitant],macrophages expressing EGF,[1],0%
same,macrophages expressing MMP-9,[1],0%
same,macrophages expressing VEGF,[1],0%
same,PHF cells expressing MMP-3,[2],0%
same,PHF cells expressing MMP-7,[2],0%
same,PHF cells expressing MMP-9,[2],0%
same,PHF cells expressing MMP-11,[2],0%
same,PHF cells expressing MMP-13,[2],0%
same,PHF cells expressing MMP-14,[2],0%
same,PHF cells expressing SPARC,[2],0%
same,PHF cells expressing TGF-α,[2],0%
same,PHF cells expressing TGF-β1,[2],0%
same,PHF cells expressing TGF-β2,[2],0%
same,PHF cells expressing TGF-β3,[2],0%
same,PHF cells expressing MMP-3,[3],0%
same,PHF cells expressing MMP-7,[3],0%
same,PHF cells expressing MMP-9,[3],0%
same,PHF cells expressing MMP-11,[3],0%
same,PHF cells expressing MMP-13,[3],0%
same,PHF cells expressing MMP-14,[3],0%
same,PHF cells expressing SPARC,[3],0%
same,PHF cells expressing TGF-α,[3],0%
same,PHF cells expressing TGF-β1,[3],0%
same,PHF cells expressing TGF-β2,[3],0%
same,PHF cells expressing TGF-β3,[3],0%
same,cells expressing MMP-3,[4],0%
same,cells expressing MMP-7,[4],0%
same,cells expressing MMP-9,[4],0%
same,cells expressing MMP-11,[4],0%
same,cells expressing MMP-13,[4],0%
same,cells expressing MMP-14,[4],0%
same,cells expressing SPARC,[4],0%
same,cells expressing TGF-α,[4],0%
same,cells expressing TGF-β1,[4],0%
same,cells expressing TGF-β2,[4],0%
same,cells expressing TGF-β3,[4],0%
same,cells expressing MMP-3,[5],0%
same,cells expressing MMP-7,[5],0%
same,cells expressing MMP-9,[5],0%
same,cells expressing MMP-11,[5],0%
same,cells expressing MMP-13,[5],0%
same,cells expressing MMP-14,[5],0%
same,cells expressing SPARC,[5],0%
same,cells expressing TGF-α,[5],0%
same,cells expressing TGF-β1,[5],0%
same,cells expressing TGF-β2,[5],0%
same,cells expressing TGF-β3,[5],0%
same,fibroblasts expressing MMP-7,[6],0%
same,fibroblasts expressing MMP-11,[6],0%
same,fibroblasts expressing MMP-14,[6],0%
same,fibroblasts expressing TGF-α,[6],0%
same,fibroblasts expressing TGF-β 1,[6],0%
same,fibroblasts expressing TGF-β 2,[6],0%
same,fibroblasts expressing TGF-β 3,[6],0%
same,fibroblasts expressing MMP-7,[7],0%
same,fibroblasts expressing MMP-11,[7],0%
same,fibroblasts expressing MMP-14,[7],0%
same,fibroblasts expressing TGF-α,[7],0%
same,fibroblasts expressing TGF-β 1,[7],0%
same,fibroblasts expressing TGF-β 2,[7],0%
same,fibroblasts expressing TGF-β 3,[7],0%
same,Endothelial cells co-cultured with tumor cells + SP + Aprepitant,[8]; Carcinoma of Colon,57 ± 3%
same,Tumor cells co-cultured with endothelial cells + SP + Aprepitant,[8]; Carcinoma of Colon,61 ± 3%
same,Endothelial cells co-cultured with tumor cells + SP + Aprepitant,[8]; Carcinoma of Pancreas,52 ± 4%
same,Tumor cells co-cultured with endothelial cells + SP + Aprepitant,[8]; Carcinoma of Pancreas,46 ± 6%
same,Endothelial cells co-cultured with tumor cells + SP + Aprepitant,[8]; Carcinoma of breast,56 ± 6%
same,Tumor cells co-cultured with endothelial cells + SP + Aprepitant,[8]; Carcinoma of breast,56 ± 3%
same,Endothelial cells co-cultured with tumor cells + SP + Aprepitant,[8]; Carcinoma of cervix,45 ± 3%
same,Tumor cells co-cultured with endothelial cells + SP + Aprepitant,[8]; Carcinoma of cervix,46 ± 3%
same,Endothelial cells co-cultured with tumor cells + SP + Aprepitant,[8]; Carcinoma of endometrial,57 ± 4%
same,Tumor cells co-cultured with endothelial cells + SP + Aprepitant,[8]; Carcinoma of endometrial,49 ± 3%
same,Endothelial cells co-cultured with tumor cells + SP + Aprepitant,[8]; [9],46 ± 7%
same,Tumor cells co-cultured with endothelial cells + SP + Aprepitant,[8]; [9],63 ± 3%
same,Endothelial cells co-cultured with tumor cells + SP + Aprepitant,[8]; [10],43 ± 4%
same,Tumor cells co-cultured with endothelial cells + SP + Aprepitant,[8]; [10],65 ± 4%
same,Endothelial cells co-cultured with tumor cells + SP + Aprepitant,[8]; Carcinoma of ovarian,49 ± 5%
same,Tumor cells co-cultured with endothelial cells + SP + Aprepitant,[8]; Carcinoma of ovarian,54 ± 4%
same,Endothelial cells co-cultured with tumor cells + SP + Aprepitant,[8]; Carcinoma of prostate,54 ± 4%
same,Tumor cells co-cultured with endothelial cells + SP + Aprepitant,[8]; Carcinoma of prostate,47 ± 5%
same,Endothelial cells co-cultured with tumor cells + SP + Aprepitant,[8]; Carcinoma of stomach,65 ± 2%
same,Tumor cells co-cultured with endothelial cells + SP + Aprepitant,[8]; Carcinoma of stomach,54 ± 5%
same,Endothelial cells co-cultured with tumor cells + SP + Aprepitant,[8]; [11],45 ± 3%
same,Tumor cells co-cultured with endothelial cells + SP + Aprepitant,[8]; [11],46 ± 6%
same,Endothelial cells co-cultured with tumor cells + SP + Aprepitant,[8]; [12],56 ± 6%
same,Tumor cells co-cultured with endothelial cells + SP + Aprepitant,[8]; [12],56 ± 4%
same,Endothelial cells co-cultured with tumor cells + SP + Aprepitant,[8]; Fibrosarcoma,45 ± 6%
same,Tumor cells co-cultured with endothelial cells + SP + Aprepitant,[8]; Fibrosarcoma,55 ± 6%
same,Endothelial cells co-cultured with tumor cells + SP + Aprepitant,[8]; Glioma,56 ± 5%
same,Tumor cells co-cultured with endothelial cells + SP + Aprepitant,[8]; Glioma,49 ± 4%
same,Endothelial cells co-cultured with tumor cells + SP + Aprepitant,[8]; Hodgkin's Lymphoma,48 ± 4%
same,Tumor cells co-cultured with endothelial cells + SP + Aprepitant,[8]; Hodgkin's Lymphoma,74 ± 6%
same,Endothelial cells co-cultured with tumor cells + SP + Aprepitant,[8]; Leukemia B,46 ± 5%
same,Tumor cells co-cultured with endothelial cells + SP + Aprepitant,[8]; Leukemia B,54 ± 6%
same,Endothelial cells co-cultured with tumor cells + SP + Aprepitant,[8]; Leukemia T,56 ± 6%
same,Tumor cells co-cultured with endothelial cells + SP + Aprepitant,[8]; Leukemia T,56 ± 5%
same,Endothelial cells co-cultured with tumor cells + SP + Aprepitant,[8]; Malignant fibrous histiocytoma,56 ± 6%
same,Tumor cells co-cultured with endothelial cells + SP + Aprepitant,[8]; Malignant fibrous histiocytoma,44 ± 5%
same,Endothelial cells co-cultured with tumor cells + SP + Aprepitant,[8]; Melanoma,56 ± 6%
same,Tumor cells co-cultured with endothelial cells + SP + Aprepitant,[8]; Melanoma,46 ± 5%
same,Endothelial cells co-cultured with tumor cells + SP + Aprepitant,[8]; Myeloma,54 ± 8%
same,Tumor cells co-cultured with endothelial cells + SP + Aprepitant,[8]; Myeloma,64 ± 3%
same,Endothelial cells co-cultured with tumor cells + SP + Aprepitant,[8]; Neuroblastoma,49 ± 4%
same,Tumor cells co-cultured with endothelial cells + SP + Aprepitant,[8]; Neuroblastoma,55 ± 6%
same,Endothelial cells co-cultured with tumor cells + SP + Aprepitant,[8]; Non-Hodgkin's Lymphoma B,67 ± 5%
same,Tumor cells co-cultured with endothelial cells + SP + Aprepitant,[8]; Non-Hodgkin's Lymphoma B,49 ± 6%
same,Endothelial cells co-cultured with tumor cells + SP + Aprepitant,[8]; Non-Hodgkin's Lymphoma T,49 ± 4%
same,Tumor cells co-cultured with endothelial cells + SP + Aprepitant,[8]; Non-Hodgkin's Lymphoma T,83 ± 8%
same,Endothelial cells co-cultured with tumor cells + SP + Aprepitant,[8]; Renal carcinoma,56 ± 2%
same,Tumor cells co-cultured with endothelial cells + SP + Aprepitant,[8]; Renal carcinoma,53 ± 3%
same,Endothelial cells co-cultured with tumor cells + SP + Aprepitant,[8]; Sarcoma of Ewing,45 ± 5%
same,Tumor cells co-cultured with endothelial cells + SP + Aprepitant,[8]; Sarcoma of Ewing,45 ± 7%
